Patent US11891386B2, “Indole compounds and their use” (ARIAGEN, INC., priority 2017, dated 2024)
Like-named read-outs stand apart in the source and are kept apart here.

How the values were obtained:
[1] = tested on: CYP1A1 in human HepG2 cells; experiment: EROD assay (7-ethoxy-resorufin-O-deethylase), human HepG2 cells; assay type: cell-based; parameters: key to activity group based on EC50 values, in the order of increasing activity: (1) active; (2) more active; (3) most active; conditions: for EC50: EROD assay, 20 hours treatment; for EC50 / activity in the human EROD assay compared to ARI-001 / ARI-002, in words: human HepG2 cells; for activity group based on EC50 values, in the order of increasing activity: oxadiazole derivatives of ITE
Description: CYP1A1 induction is under the control of the AhR signaling pathway. This Example describes an in vitro assay (7-ethoxy-resorufin-O-deethylase (EROD) assay) that evaluated the AhR modulating activities of the indole compounds described herein. In this assay, the indole compounds were incubated with human HepG2 cells or mouse Hepal-6 cells. The activity of CYP1A1 in the cells was measured by the conversion of substrate 7-ethoxyresorufin, with the readout being a fluorescence signal associated with the conversion product. The EC50 values of the indole compounds as well as the maximum […] induced by them in the assay were determined.
Human HepG2 cells were obtained from Sigma Aldrich (Catalog 85011430-1VL). Mouse Hepal-6 cells also were obtained from Sigma Aldrich (Catalog 92110305-1V).
Human HepG2 and Mouse Hepal-6 cells were grown to 60-80% confluency in tissue culture flasks, lifted with non-enzymatic cell dissociation solution (cell stripper), seeded in a 384-well plate at 5,000 cells per well, treated with the test compounds, and incubated for 20 hours overnight at 37° C. The treatment medium was removed and a solution of substrate 7-ethoxyresorufin (ETX) was added to initiate the reaction. The plate was incubated at 37° C. for 30 minutes. The reaction was subsequently terminated by adding tempered methanol. Fluorescent emission was measured at 590 nm with excitation at 530 nm in a FLEXSTATION III instrument (Molecular Devices).

[2] = In vivo pharmacokinetic study in Sprague-Dawley rats; conditions: rat; for bioavailability: Sprague-Dawley, plasma, po, 10 mg/kg; for % of Hepatisc Blood Flow: IV (2 mg/kg)
Description: This example describes pharmacokinetic (PK) studies of the various indole compounds described herein in rats, a rodent species widely used for pre-clinical toxicology evaluation. In the present studies, the test compounds were given to groups of Sprague-Dawley rats (N=3 in each group) intravenously (IV) at 2 mg/kg or orally (PO) at 10 mg/kg. IV doses were formulated in DMSO, while PO doses were formulated in a 50/50 mixture of PEG400 and Tween 80. Blood samples were collected at pre-dose and over a period of 24 hours post-dose. Plasma concentrations of the indole compounds were determined by HPLC.

[3] = tested on: EMT-6 syngeneic mouse tumor model (breast cancer); experiment: Anti-tumor activity, EMT-6 syngeneic mouse tumor model; assay type: in vivo; conditions: for inhibition in vivo at 40 mg/kg: EMT6, ip; for anti-tumor potency, in words / tumor growth and survival, in words: 40 mpk
Description: (§1) This example describes in vivo studies that evaluated the anti-cancer efficacy of the disclosed indole compounds in syngeneic mouse tumor models. Mice implanted subcutaneously with four types of cancer cells were treated with test indole compounds or vehicle controls as described below.
(§2) A monolayer culture of tumor cells was maintained in vitro in DMEM or RPMI1640 medium supplemented with 10% fetal bovine serum at 37° C. in an atmosphere of 5% CO2. Cells in exponential growth phase were harvested and quantitated by cell counter before tumor inoculation. The cell lines used are described in the table below.
(§3) Four subcutaneous syngeneic mouse tumor models were generated by innoculating female BALB/C or C57BL/6 mice with cancer cells at their right lower or front flank as detailed in the table below:
(§4) Each mouse was inoculated subcutaneously with tumor cells in 0.1 mL of PBS. Treatments were started when the mean tumor size reached approximately 80-120 mm^3 (around 100 mm^3). The administration of the indole compounds and the animal number in each study group are shown in the study design. The date of tumor cell inoculation was denoted as day 0.
(§5) The indole compounds were dissolved in DMSO at the final concentration of 26.7 mg/ml and stored at room temperature.
(§6) Randomization of animals was started when the mean tumor size reached approximately 90 mm^3 to form the mouse study groups. The randomization was performed based on “Matched distribution” method using the multi-task method (StudyDirector™ software, version 3.1.399.19)/randomized block design. The mouse groups (ten in each group) were treated with vehicle (DMSO) or the indole compounds at a dose of 40 mg/kg by i.p. injection, QD for 28 days or longer.
(§7) After tumor cell inoculation, the mice were checked daily for morbidity and mortality. During routine monitoring, the mice were checked for tumor growth and any effects of the treatment on behavior such as mobility, food and water consumption, body weight gain/loss (body weights were measured twice per week after randomization), eye/hair matting, and any other abnormalities. Mortality and observed clinical signs were recorded for individual mice in detail.
(§8) Tumor volumes were measured twice per week in two dimensions using a caliper, and the volume was expressed in mm^3 using the formula: V=(L×W×W)/2, where V is tumor volume, L is tumor length (the longest tumor dimension) and W is tumor width (the longest tumor dimension perpendicular to L). Dosing as well as tumor and body weight measurements was conducted in a Laminar Flow Cabinet. The body weights and tumor volumes were measured by using StudyDirector™ software (version 3.1.399.19). Dosing Holiday
Tumor growth inhibition percentage (TGI %) is an indicator for antitumor activity of a drug compound, and expressed as: TGI (%)=100×(1−T/C), where T and C are the mean tumor volume (or weight) of the treated and control groups, respectively, on a given day. Statistical analysis of the difference in mean tumor volume (MTV) among the groups was conducted using the data collected on the day when the MTV of the vehicle group reached the humane endpoints, so that TGI could be derived for all or most mice enrolled in the study.
In Studies 1 and 3, the anti-tumor activity of ARI-001 in parallel with ARI-002 at 160 mg/kg (mpk), and the anti-tumor activity of ARI-087 in parallel with ARI-002 at 40 mpk were assessed using the EMT-6, Pan02, A20, and LL/2 models. Because EMT-6 provides a fast-growing model that enables relatively quick differentiation of performance between compounds, this syngeneic mouse tumor model was chosen for the other studies. In Study 2, the anti-tumor activity of ARI-002 was compared with that of ARI-004 at 10, 40, and 80 mpk. In Study 4, the anti-tumor activity of ARI-087 was compared with that of ARI-140. In Study 5, the anti-tumor activity of ARI-087 was evaluated in parallel with ARI-143 and ARI-149 at 40 mpk. […]

[4] = tested on: Pan02 syngeneic mouse tumor model (pancreatic cancer); experiment: Anti-tumor activity, Pan02 syngeneic mouse tumor model; assay type: in vivo
Description: as §1, §2, §3, §4, §5
Randomization of animals was started when the mean tumor size reached approximately 90 mm^3 to form the mouse study groups. […]
as §7
as §8, with “Dosing as well as tumor and body weight measurements was conducted in a Laminar Flow Cabinet.” left out, “Dosing Holiday” left out
(§9) Tumor growth inhibition percentage (TGI %) is an indicator for antitumor activity of a drug compound, and expressed as: TGI (%)=100×(1−T/C), where T and C are the mean tumor volume (or weight) of the treated and control groups, respectively, on a given day. […]
In Studies 1 and 3, the anti-tumor activity of ARI-001 in parallel with ARI-002 at 160 mg/kg (mpk), and the anti-tumor activity of ARI-087 in parallel with ARI-002 at 40 mpk were assessed using the EMT-6, Pan02, A20, and LL/2 models. […]

[5] = tested on: A20 syngeneic mouse tumor model (B cell lymphoma); experiment: Anti-tumor activity, A20 syngeneic mouse tumor model; assay type: in vivo
Description: as §1, §2, §3, §4, §5, §6, §7, §8, §9
(§10) In Studies 1 and 3, the anti-tumor activity of ARI-001 in parallel with ARI-002 at 160 mg/kg (mpk), and the anti-tumor activity of ARI-087 in parallel with ARI-002 at 40 mpk were assessed using the EMT-6, Pan02, A20, and LL/2 models. […] In Study 5, the anti-tumor activity of ARI-087 was evaluated in parallel with ARI-143 and ARI-149 at 40 mpk. […]

[6] = tested on: LL/2 syngeneic mouse tumor model (lung cancer); experiment: Anti-tumor activity, LL/2 syngeneic mouse tumor model; assay type: in vivo
Description: as §1, §2, §3, §4, §5, §6, §7, §8, §9, §10

[7] = tested on: hepatocytes; experiment: Metabolite analysis in hepatocytes by high-resolution mass spectrometry; assay type: in vitro ADME; conditions: preliminary studies
From the text: It remains unclear whether halogen substitutions at the indole ring impact the activity and metabolic profiles of the indole compounds described herein.

[8] = PO (10 mg/kg) vs IV (2 mg/kg), read-out: F % (bioavailability)
[9] = Mus musculus, 648 h, Study 3, EMT-6, 40 mpk i.p. QD, D27, read-out: TGI (tumor growth inhibition)
[10] = Study 3, Pan02, 40 mpk i.p. QD, D60
[11] = Study 3, A20, 40 mpk i.p. QD, D28
[12] = EMT-6 model, Study 4, by day 46
[13] = EMT-6 model, Study 5, by day 51
[14] = Mus musculus, 672 h, Study 4, EMT-6, 40 mpk i.p. QD, D28, read-out: TGI (tumor growth inhibition)
[15] = Mus musculus, 720 h, Study 5, EMT-6, 40 mpk i.p. QD, D30, read-out: TGI (tumor growth inhibition)

| Compound | EC50 [1] [nM] | bioavailability [2, 8] [%] | % of Hepatisc Blood Flow [2] [%] | activity group based on EC50 values, in the order of increasing activity ([1]; human EROD assay) | activity in the human EROD assay compared to ARI-001 / ARI-002, in words [1] | IV PK profile compared to ARI-001, ARI-002, and ARI-004, in words ([2]; IV) | inhibition in vivo at 40 mg/kg [3, 9] [%] | TGI (tumor growth inhibition) [4, 10] [% D60] | TGI (tumor growth inhibition) [5, 11] [% D28] | absolute oral bioavailability, times higher than ARI-002 ([2]; PO) [times] | anti-tumor potency, in words ([3]; EMT-6 model) | tumor growth and survival, in words ([3]; EMT-6 model) | complete tumor regression (CR) [3, 12] | complete tumor regression (CR) [3, 13] | inhibition in vivo at 40 mg/kg [3, 14] [%] | inhibition in vivo at 40 mg/kg [3, 15] [%] | primary metabolites of the indole ring identified [7] | IV AUCinf, times higher than ARI-002 ([2]; IV) [times] | plasma clearance, % of that of ARI-002 ([2]; IV) [%] | PO AUCinf, times higher than that of ARI-002 ([2]; PO) | also measured |
| --- | --- | --- | --- | --- | --- | --- | --- | --- | --- | --- | --- | --- | --- | --- | --- | --- | --- | --- | --- | --- | --- |
| COC(=O)c1csc(C(=O)c2c[nH]c3ccccc23)n1 [ARI-001, ITE] | 28.9 | 0.4 | 289 |  |  |  |  |  |  |  |  |  |  |  |  |  |  |  |  |  | inhibition in vivo at 160 mg/kg ([3]; Mus musculus, EMT6, 648 h, Study 1, EMT-6, 160 mpk, D27, read-out: TGI (tumor growth inhibition)): 53%; TGI (tumor growth inhibition) ([4]; Study 1, Pan02, 160 mpk, D28): 74.2% D28; TGI (tumor growth inhibition) ([5]; Study 1, A20, 160 mpk, D26): 54.5% D26; TGI (tumor growth inhibition) ([6]; Study 1, LL/2, 160 mpk, D28): 65.1% D28 |
| Nc1nnc(-c2csc(C(=O)c3c[nH]c4ccccc34)n2)o1 [ARI-083, (4-(5-amino-1,3,4-oxadiazol-2-yl)thiazol-2-yl)(1H-indol-3-yl)methanone] |  | 1 | 45 | more active | significantly more (about 4 to 900 times more) active than ARI-001 | improved IV PK profiles | 21.2 | 2.7 | 22 |  |  |  |  |  |  |  |  |  |  |  | TGI (tumor growth inhibition) ([6]; Study 3, LL/2, 40 mpk i.p. QD, D28): 24.0% D28 |
| CCC(=O)c1csc(C(=O)c2c[nH]c3ccc(F)cc23)n1 [ARI-087, 1-(2-(5-fluoro-1H-indole-3-carbonyl)thiazol-4-yl)propan-1-one] | 34.2 | 19.7 | 84 |  |  |  | 56.7 | 64.9 | 20.9 | 1.8 | better tumor inhibitory activity than parent compound ARI-002 | delayed tumor growth and prolonged survival | did not result in a CR until day 81 | did not have any animal in CR | 29.5 | 42.2 | fewer primary metabolites of the indole ring |  |  |  | IV AUCinf, % of that of ARI-002 ([2]; IV): 45%; plasma clearance, times higher than ARI-002 ([2]; IV): 3.2 times; PO AUCinf, % of that of ARI-002 ([2]; PO): 81%; animals with tumor volumes<1000 mm^3 ([3]; EMT-6 model, day 27, 40 mpk): 6 out of 10; inhibition in vivo at 40 mg/kg ([3]; Mus musculus, 624 h, Study 6, EMT-6, 40 mpk i.p. QD, D26, read-out: TGI (tumor growth inhibition)): 52.8%; tumor inhibitory activity compared to ARI-002, in words ([5]; Study 3, lymphoma model, 40 mpk): better tumor inhibitory activity than parent compound ARI-002; TGI (tumor growth inhibition) ([6]; Study 3, LL/2, 40 mpk i.p. QD, D38): 23.3% D38; tumor inhibitory activity compared to ARI-002, in words ([6]; Study 3, lung model, 40 mpk): better tumor inhibitory activity than parent compound ARI-002 |
| Nc1nnc(-c2csc(C(=O)c3c[nH]c4c(F)cccc34)n2)o1 [ARI-118, (4-(5-amino-1,3,4-oxadiazol-2-yl)thiazol-2-yl)(7-fluoro-1H-indol-3-yl)methanone] |  | 0.2 | 17 | most active | significantly more (about 4 to 900 times more) active than ARI-001 | improved IV PK profiles |  |  |  |  | superior anti-tumor activity than ARI-087 | delay tumor growth and prolong survival | 1 out of 10 |  | 54.5 |  |  |  |  |  | times more active than ARI-001 ([1]; human EROD assay): about 930 times; times more active than ARI-002 ([1]; human EROD assay): about 13 times |
| CCC(=O)c1csc(C(=O)c2c[nH]c3cc(F)ccc23)n1 [ARI-143, 1-(2-(6-fluoro-1H-indole-3-carbonyl)thiazol-4-yl)propan-1-one] | 4.2 | 19.3 | 19 |  |  |  |  |  |  | 1.8 | most potent ketone derivative | delay tumor growth and prolong survival |  | 2 out of 10 |  | 65.9 | fewer primary metabolites of the indole ring | 1.5 | 74 | 2.6 times |  |
| CCC(=O)c1csc(C(=O)c2c[nH]c3cc(F)c(F)cc23)n1 [ARI-149, 1-(2-(5,6-difluoro-1H-indole-3-carbonyl)thiazol-4-yl)propan-1-one] | 19.2 | 6.8 | 13 |  |  |  |  |  |  |  |  |  |  |  |  | 42.7 |  | 2.3 | 50 | about 1.4 times | bioavailability ([2]; PO, read-out: absolute oral bioavailability, % of ARI-002): 62% |
